{"source": "patent US11213506B2", "about": "“Combination therapy for the treatment or prevention of tumours” (QBIOTICS PTY LTD, priority 2017, dated 2022)", "tested_on": "mouse stroma in SK-MEL-28 human melanoma xenografts", "assay": "Gene expression changes in mouse tumour stroma (Illumina BeadChip)", "format": "in vivo, BALB/c Foxn1nu mouse", "conditions": "30 μg Compound 1 injected into the tumour", "experimental": "The SK-MEL-28 human melanoma cell line was injected subcutaneously (s.c) into 2 sites on the flanks of each BALB/c Foxn1nu mouse (2 million cells/site) and allowed to grow to approximately 7 mm diameter. Each tumour was then injected with 50 μl of 20% propylene glycol containing 30 μg Compound 1 or with 50 μl of 20% propylene glycol. At different times after injection a mouse was euthanased and the tumours harvested, the skin covering removed, and the intact tumours stored at −80° C.\nRNA was extracted from 30 mg of frozen tumour using the Qiagen RNeasy Plus Mini Kit, according to manufacturer's instructions, then quantitated with a NanoDrop instrument and integrity confirmed on denaturing agarose gels bearing a 1 kb DNA marker and stained with ethidium bromide.\nApproximately 500 ng of total unlabelled RNA was adjusted to a final volume of 11 μl with nuclease-free water. The RNA was incubated with 9 μl of the reverse transcriptase master mix (1 μl of T7 Oligo (dT) Primer, 2 μl of 10× first strand buffer, 4 μl of dNTP mix, 1 μl of RNase inhibitor and 1 μl of ArrayScript) at 42° C. for 2 h. This was followed by the second strand cDNA synthesis step which involved a further incubation at 16° C. for 2 hr with 80 μl of the second strand master mix (63 μL nuclease-free water, 10 μl 10× second strand buffer, 4 μl dNTP mix, 2 μl DNA polymerase and 1 μl RNase H). The cDNA was purified by filtering through a cDNA Filter Cartridge with 250 μl of cDNA binding buffer and washing with 500 μl of the wash buffer provided in the kit. Purified cDNA was eluted with 20 μl of 55° C. nuclease-free water. Each cDNA sample was incubated with 7.5 μl of the IVT master mix (2.5 μl of T7 10× reaction buffer, 2.5 μl of T7 enzyme mix and 2.5 μl biotin-NTP mix) at 37° C. for 16 h. The reaction was stopped with the addition of 75 μl of nuclease-free water to each cRNA sample. The biotinylated, amplified RNA was purified by filtering the cRNA samples through cRNA Filter Cartridges with 350 μL of cRNA binding buffer and 250 μl of 100% ethanol mixed together prior to loading onto the filters. The cRNA filter cartridges with attached RNA were then washed with 650 μl of wash buffer before eluting purified cRNA with 200 μl of 55° C. nuclease-free water.\nThe cRNA samples were heated at 65° C. for 5 min and collected by pulse centrifugation. After heating at 65° C. for 5 min, approximately 750 ng of the cRNA sample was aliquoted into separate tubes to which were added ˜5 μl of RNase-free water and 10 μl of Hyb Mix. […]\nBeadChips were read by the iScan System, and transferred via GenomeStudio into GeneSpring GX v12.5 (Agilent Technologies, Santa Clara, Calif., USA). […] The entities were filtered based on the detection score calculated by GenomeStudio where p≤0.05 was considered significant.", "data": [{"compound": "C/C=C(\\C)C(=O)O[C@@H]1[C@@H](C)[C@@]2(O)[C@H]([C@@H]3C(C)(C)[C@]13OC(=O)[C@@H](C)CC)[C@@H]1O[C@]1(CO)[C@@H](O)[C@]1(O)C(=O)C(C)=C[C@H]12", "note": "[Compound 1, 12-tigloyl-13-(2-methylbutanoyl)-6,7-epoxy-4,5,9,12,13,20-hexahydroxy-1-tiglien-3-one]", "values": [{"measurement": "Cxcl1 expression at the tumour site", "value": "heavily upregulated"}, {"measurement": "expression of host cytokines/chemokines important for recruitment/activation of immune cells at the tumour site", "value": "upregulated"}, {"measurement": "host gene expression changes associated with a Th-1/M-like response: IFN-γ, TNF, IL-δ and IL-1β", "value": "induction"}, {"measurement": "TGF beta signalling (pathway analysis of gene expression)", "setting": "t=8 h", "value": "downregulation"}]}]}
